Test results as given in patent publication US20250368653A1, “SOLID FORMS COMPRISING (S)-7-(1-ACRYLOYLPIPERIDIN-4-YL)-2-(4-PHENOXYPHENYL)-4,5,6,7-TETRAHYDROPYRAZOLO[1,5-A]PYRIMIDINE-3-CARBOXAMIDE, AND OXALIC ACID, COMPOSITIONS AND METHODS OF USE THEREOF” (BeiGene Switzerland GmbH, priority 2022, published 2025).
≈ marks a conversion by molar mass, not a printed value. Where two headings read alike, the source gives them in different places.

Legend:
[1] = Solubility experiment in water; format: physicochemical; details: solid loading 2 mg/mL; for solubility at 1 h / solubility at 2 h / solubility at 4 h / solubility at 24 h: thermodynamic from solid, read-out: S: solubility
Experimental: Table 7 and Table 8 provide summaries of solubility experiment in water at 37° C. and 25° C., respectively.

DVS water uptake = format: physicochemical; details: 25° C./80% RH

Row | FC: solid form change ([1]; 25° C., 1 hr) | S: solubility ([1]; 25° C., 1 hr) [mg/mL] | pH ([1]; 25° C., 1 hr) | FC: solid form change ([1]; 25° C., 2 hrs) | S: solubility ([1]; 25° C., 2 hrs) [mg/mL] | pH ([1]; 25° C., 2 hrs) | FC: solid form change ([1]; 25° C., 4 hrs) | S: solubility ([1]; 25° C., 4 hrs) [mg/mL] | pH ([1]; 25° C., 4 hrs) | FC: solid form change ([1]; 25° C., 24 hrs) | S: solubility ([1]; 25° C., 24 hrs) [mg/mL] | pH ([1]; 25° C., 24 hrs) | FC: solid form change ([1]; 37° C., 1 hr) | pH ([1]; 37° C., 1 hr) | FC: solid form change ([1]; 37° C., 2 hrs) | pH ([1]; 37° C., 2 hrs) | FC: solid form change ([1]; 37° C., 4 hrs) | pH ([1]; 37° C., 4 hrs) | FC: solid form change ([1]; 37° C., 24 hrs) | pH ([1]; 37° C., 24 hrs) | Compound | other results
1 | No | 0.074 | 8.55 | No | 0.081 | 8.57 | No | 0.078 | 8.51 | No | 0.072 | 7.68 | Gel | 8.78 | Gel | 8.77 | Gel | 8.60 | Gel | 7.74 | C=CC(=O)N1CCC([C@@H]2CCNc3c(C(N)=O)c(-c4ccc(Oc5ccccc5)cc4)nn32)CC1 [Freebase Amorphous] | S: solubility ([1]; 37° C., 1 hr): 0.089 mg/mL; S: solubility ([1]; 37° C., 2 hrs): 0.089 mg/mL; S: solubility ([1]; 37° C., 4 hrs): 0.084 mg/mL; S: solubility ([1]; 37° C., 24 hrs): 0.078 mg/mL
2 | No |  | 3.36 | No |  | 3.09 | No |  | 3.01 | No |  | 2.76 | Gel | 3.22 | Gel | 2.97 | Gel | 3.01 | Gel | 2.74 | C=CC(=O)N1CCC([C@@H]2CCNc3c(C(N)=O)c(-c4ccc(Oc5ccccc5)cc4)nn32)CC1 [Form 1] | hygroscopicity (DVS water uptake): non hygroscopic; water uptake (DVS water uptake): lower than 0.2%; solubility at 1 h ([1]; 25 °C, 25° C., 1 hr): 75 µg/mL (≈ 159 µM); solubility at 2 h ([1]; 25 °C, 25° C., 2 hrs): 78 µg/mL (≈ 165 µM); solubility at 4 h ([1]; 25 °C, 25° C., 4 hrs): 77 µg/mL (≈ 163 µM); solubility at 24 h ([1]; 25 °C, 25° C., 24 hrs): 75 µg/mL (≈ 159 µM); solubility at 1 h ([1]; 37 °C, 37° C., 1 hr): 90 µg/mL (≈ 191 µM); solubility at 2 h ([1]; 37 °C, 37° C., 2 hrs): 88 µg/mL (≈ 187 µM); solubility at 4 h ([1]; 37 °C, 37° C., 4 hrs): 73 µg/mL (≈ 155 µM); solubility at 24 h ([1]; 37 °C, 37° C., 24 hrs): 82 µg/mL (≈ 174 µM)
3 | No | 0.044 | 8.66 | No | 0.046 | 8.66 | No | 0.040 | 8.57 | No | 0.047 | 7.85 | No | 8.76 | No | 8.77 | No | 8.63 | No | 7.67 | C=CC(=O)N1CCC([C@@H]2CCNc3c(C(N)=O)c(-c4ccc(Oc5ccccc5)cc4)nn32)CC1 [Freebase Form A] | S: solubility ([1]; 37° C., 1 hr): 0.055 mg/mL; S: solubility ([1]; 37° C., 2 hrs): 0.057 mg/mL; S: solubility ([1]; 37° C., 4 hrs): 0.059 mg/mL; S: solubility ([1]; 37° C., 24 hrs): 0.056 mg/mL
